From patent US10889555B2, “Sulfonamide compound or salt thereof” (Taiho Pharmaceutical Co., Ltd., priority 2016, dated 2021)
Where two headings read alike, the source gives them in different places.

System: HCC 1806 cells
Assay: Cell proliferation inhibitory effect on human breast cancer cell line (crystal violet, 72 hours)
Type: cell-based
Conditions: read-out: Cell growth suppression IC50
In short: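 Cells were seeded at 2,000/well in RPMI-1640 with 10% FBS and grown 1 day, then exposed to compound for 72 h at 37° C, 5% CO2. After glutaraldehyde fixation and 0.05% crystal violet staining, extracted dye was read at 540 nm. IC50 (μM) came from growth inhibition relative to untreated and cell-free wells.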

| SMILES | IC50 (Homo sapiens, HCC1806, 72 h) | IC50 |
| --- | --- | --- |
| Cc1ccc(F)c([C@@H](C)[C@H](NS(=O)(=O)c2ccc(Cl)c3c2OCC(=O)N3CCO)c2n[nH]c(=O)o2)c1C [Example 273, 5-chloro-N-((1S,2R)-2-(6-fluoro-2,3-dimethylphenyl)-1-(5-oxo-4,5-dihydro-1,3,4-oxadiazol-2-yl)propyl)-4-(2-hydroxyethyl)-3-oxo-3,4-dihydro-2H-benzo[b][1,4]oxazine-8-sulfonamide] | 810 nM |  |
| Cc1cc(S(=O)(=O)N[C@H](c2n[nH]c(=O)o2)[C@H](C)c2c(F)ccc(C)c2C)c(C(N)=O)cc1Cl [Example 257, 5-chloro-2-(N-((1S,2R)-2-(6-fluoro-2,3-dimethylphenyl)-1-(5-oxo-4,5-dihydro-1,3,4-oxadiazol-2-yl)propyl)sulfamoyl)-4-methylbenzamide] | 200 nM |  |
| Cc1ccc(F)c([C@@H](C)[C@H](NS(=O)(=O)c2ccc(Cl)c(C(C)(C)O)n2)c2n[nH]c(=O)o2)c1C [Example 193, 5-chloro-N-((1S,2R)-2-(6-fluoro-2,3-dimethylphenyl)-1-(5-oxo-4,5-dihydro-1,3,4-oxadiazol-2-yl)propyl)-6-(2-hydroxypropan-2-yl)pyridine-2-sulfonamide] | 110 nM |  |
| Cc1ccc(F)c([C@@H](C)[C@H](NS(=O)(=O)c2ccc(Cl)c(C(=O)N3CCCC3)n2)c2n[nH]c(=O)o2)c1C [Example 114, 5-chloro-N-((1S,2R) 2-(6-fluoro-2,3-dimethylphenyl)-1-(5-oxo-4,5-dihydro-1,3,4-oxadiazol-2-yl)propyl)-6-(pyrrolidine-1-carbonyl)pyridine-2-sulfonamide] | 370 nM |  |
| Cc1ccc(F)c([C@@H](C)[C@H](NS(=O)(=O)c2ccc(Cl)c3c2OCC(=O)N3C)c2n[nH]c(=O)o2)c1C [Example 93, 5-chloro-N-((1S,2R)-2-(6-fluoro-2,3-dimethylphenyl)-1-(5-oxo-4,5-dihydro-1,3,4-oxadiazol-2-yl)propyl)-4-methyl-3-oxo-3,4-dihydro-2H-benzo[b][1,4]oxazine-8-sulfonamide] | 280 nM |  |
| Cc1c(Cl)ccc(F)c1[C@@H](C)[C@H](NS(=O)(=O)c1ccc(Cl)c2c1OCCC2(C)O)c1n[nH]c(=O)o1 (single isomer, unassigned) [Example 209B] |  | 820 nM |
| Cc1ccc(F)c([C@@H](C)[C@H](NS(=O)(=O)c2ccc(F)c3c2OCCC3O)c2n[nH]c(=O)o2)c1C (single isomer, unassigned) [Example 230A] |  | 290 nM |
| Cc1ccc(F)c([C@@H](C)[C@H](NS(=O)(=O)c2ccc(Cl)c(C(=O)N3CCOCC3)n2)c2n[nH]c(=O)o2)c1C [Example 113, 5-chloro-N-((1S,2R)-2-(6-fluoro-2,3-dimethylphenyl)-1-(5-oxo-4,5-dihydro-1,3,4-oxadiazol-2-yl)propyl)-6-(morpholine-4-carbonyl)pyridine-2-sulfonamide] | 600 nM |  |
| Cc1ccc(S(=O)(=O)N[C@H](c2n[nH]c(=O)o2)[C@H](C)c2c(F)ccc3ccccc23)c(C(N)=O)c1 [Example 12, 2-(N-((1S,2R)-2-(2-Fluoronaphthalen-1-yl)-1-(5-oxo-4,5-dihydro-1,3,4-oxadiazol-2-yl)propyl)sulfamoyl)-5-methylbenzamide] | 500 nM |  |
| COc1cc(S(=O)(=O)N[C@H](c2n[nH]c(=O)o2)[C@H](C)c2c(F)ccc(C)c2C)c(C(N)=O)cc1Cl [Example 259, 5-chloro-2-(N-((1S,2R)-2-(6-fluoro-2,3-dimethylphenyl)-1-(5-oxo-4,5-dihydro-1,3,4-oxadiazol-2-yl)propyl)sulfamoyl)-4-methoxybenzamide] | 350 nM |  |
| Cc1ccc(F)c([C@@H](C)[C@@H](c2n[nH]c(=O)o2)N(C)S(=O)(=O)c2ccc(Cl)cc2C(N)=O)c1C [Example 337, 5-chloro-2-(N-((1S,2R)-2-(6-fluoro-2,3-dimethylphenyl)-1-(5-oxo-4,5-dihydro-1,3,4 oxadiazol-2-yl)propyl)-N-methylsulfamoyl)benzamide] | 300 nM |  |
| Cc1ccc(F)c([C@@H](C)[C@H](NS(=O)(=O)c2ccc(Cl)c(C(=O)N3CCC4(CC3)COC4)n2)c2n[nH]c(=O)o2)c1C [Example 156, 5-chloro-N-((1S,2R)-2-(6-fluoro-2,3-dimethylphenyl)-1-(5-oxo-4,5-dihydro-1,3,4-oxadiazol-2-yl)propyl)-6-(2-oxa-7-azaspiro[3.5]nonane-7-carbonyl)pyridine-2-sulfonamide] | 870 nM |  |
| Cc1ccc(F)c([C@@H](C)[C@H](NS(=O)(=O)c2cnc(Cl)cc2C(N)=O)c2n[nH]c(=O)o2)c1C [Example 40, 2-chloro-5-(N-((1S,2R)-2-(6-fluoro-2,3-dimethylphenyl)-1-(5-oxo-4,5-dihydro-1,3,4-oxadiazol-2-yl)propyl)sulfamoyl)isonicotinamide] | 590 nM |  |
| Cc1ccc(F)c([C@@H](C)[C@H](NS(=O)(=O)c2ccc(Cl)cc2OC(F)F)c2n[nH]c(=O)o2)c1C [Example 146, 4-chloro-2-(difluoromethoxy)-N-((1S,2R)-2-(6-fluoro-2,3-dimethylphenyl)-1-(5-oxo-4,5-dihydro-1,3,4-oxadiazol-2-yl)propyl)benzenesulfonamide] | 830 nM |  |
| COc1c(S(=O)(=O)N[C@H](c2n[nH]c(=O)o2)[C@H](C)c2c(F)ccc(C)c2C)ccc(Cl)c1C(C)=O [Example 294, 3-acetyl-4-chloro-N-((1S,2R)-2-(6-fluoro-2,3-dimethylphenyl)-1-(5-oxo-4,5-dihydro-1,3,4-oxadiazol-2-yl)propyl)-2-methoxybenzenesulfonamide] | 390 nM |  |
| Cc1c(C2CC2)ccc(F)c1[C@@H](C)[C@H](NS(=O)(=O)c1ccc(Cl)cc1C(N)=O)c1n[nH]c(=O)o1 [Example 26, 5-chloro-2-(N-((1S,2R)-2-(3-cyclopropy1-6-fluoro-2-methylphenyl)-1-(5-oxo-4,5-dihydro-1,3,4-oxadiazol-2-yl)propyl)sulfamoyl)benzamide] | 980 nM |  |
| Cc1ccc(F)c([C@@H](C)[C@H](NS(=O)(=O)c2ccc(C(F)(F)F)c3c2OCCC3O)c2n[nH]c(=O)o2)c1C (single isomer, unassigned) [Example 244A] | 720 nM |  |
| C[C@H](c1c(F)ccc2ccccc12)[C@H](NS(=O)(=O)c1ccc(Cl)c2c1OCCC2F)c1n[nH]c(=O)o1 (mixture of isomers) [Example 292, 5-chloro-4-fluoro-N-((1S,2R)-2-(2-fluoronaphthalen-1-yl)-1-(5-oxo-4,5-dihydro-1,3,4-oxadiazol-2-yl)propyl)chroman-8-sulfonamide] | 750 nM |  |
| Cc1ccc(F)c([C@@H](C)[C@H](NS(=O)(=O)c2ccc(Cl)c3c2OCCC3(O)C(F)(F)F)c2n[nH]c(=O)o2)c1C (single isomer, unassigned) [Example 220A] | 370 nM |  |
| Cc1c(Br)ccc(F)c1[C@@H](C)[C@H](NS(=O)(=O)c1ccc(Br)cc1C(N)=O)c1n[nH]c(=O)o1 [Example 35, 5-bromo-2-(N-((1S,2R)-2-(3-bromo-6-fluoro-2-methylphenyl)-1-(5-oxo-4,5-dihydro-1,3,4-oxadiazol-2-yl)propyl)sulfamoyl)benzamide] | 670 nM |  |
| Cc1ccc(F)c([C@@H](C)[C@H](NS(=O)(=O)c2ccc(Cl)cc2-c2ccno2)c2n[nH]c(=O)o2)c1C [Example 91, 4-chloro-N-((1S,2R)-2-(6-fluoro-2,3-dimethylphenyl)-1-(5-oxo-4,5-dihydro-1,3,4-oxadiazol-2-yl)propyl)-2-(isoxazol-5-yl)benzenesulfonamide] | 980 nM |  |
